# How the values were obtained:
# [1] = biological target: Cathepsin Z (Cat Z) (Mus musculus, UniProt Q9WUU7); assay: competition of […]-JPM565 active-site labeling in transfected […] cell lysate; assay type: biochemical
# [2] = biological target: T1, Cathepsin F (Cat F) (Mus musculus, UniProt Q9R013); assay type: cell-based
# T1 sequence (Q9R013 249-462): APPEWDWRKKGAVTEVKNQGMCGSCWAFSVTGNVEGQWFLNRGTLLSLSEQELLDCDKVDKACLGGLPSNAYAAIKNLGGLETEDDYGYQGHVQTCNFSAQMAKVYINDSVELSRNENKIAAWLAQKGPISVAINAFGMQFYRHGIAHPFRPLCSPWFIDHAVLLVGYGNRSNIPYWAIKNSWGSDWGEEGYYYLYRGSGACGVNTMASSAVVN
# Sequence of Cathepsin Z (Cat Z) (Q9WUU7 64-306): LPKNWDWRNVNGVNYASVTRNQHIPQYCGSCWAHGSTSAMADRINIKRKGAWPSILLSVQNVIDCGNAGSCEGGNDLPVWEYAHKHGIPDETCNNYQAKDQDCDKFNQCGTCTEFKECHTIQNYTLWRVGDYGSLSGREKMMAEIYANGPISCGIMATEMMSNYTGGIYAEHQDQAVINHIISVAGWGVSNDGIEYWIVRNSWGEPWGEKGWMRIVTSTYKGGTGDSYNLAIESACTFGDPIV
inhibits at this concentration [1],complete inhibition [2],Structure (SMILES)
20 (inhibits at this concentration) μM,,CC(C)C[C@H](NC(=O)[C@H]1O[C@@H]1C(=O)O)C(=O)NCCCCNC(=N)N [E64]
,1 (complete inhibition) μM,CC(C)C[C@H](NC(=O)N1CCOCC1)C(=O)N[C@H](/C=C/S(=O)(=O)c1ccccc1)CCc1ccccc1 [LHVS]
